Results taken from patent US8394785B2, “Methods for the treatment and amelioration of urticaria” (Jado Technologies GmbH, priority 2005, dated 2013).
Entries after “also recorded” stand apart in the source; their conditions may differ. Counter-ions that a name gives are not always drawn. Like-named read-outs stand apart in the source and are kept apart here.

What was measured:
[1] = test system: Rat basophilic leukemia (RBL-2H3) cells; test: Mast cell degranulation assay (β-hexosaminidase release); assay type: cell-based; conditions: for IC50: 1 h, concentration at which 50% of maximal inhibition is reached, RBL-2H3, 60 min incubation with compound, DNP antigen challenge, read-out: ID50 (the source's name); for activity in the mast cell degranulation assay (in words): FIGS. 1 to 8
Procedure: The assay measures release of β-hexosaminidase as a marker of release of various preformed pharmacological agents in response to clustering of the high affinity IgE receptor (FcεRI) by means of multivalent antigen-IgE complexes. Rat basophilic leukemia (RBL-2H3) cells, a commonly used model of mast cell degranulation, are sensitized with anti-DNP specific IgE and challenged with multivalent DNP-BSA. The release of β-hexosaminidase into the supernatant is measured by enzymatic conversion of the fluorogenic substrate 4-methylumbelliferyl-N-acetyl-β-D-glucosaminide to N-acetyl-β-D-glucosamine and highly fluorescent methylumbelliferone and quantified by fluorescence detection in a Tecan Safire™ plate reader.
RBL-2H3 cells obtained from the German Collection of Microorganisms and Cell Cultures (Braunschweig, Germany) were maintained in 70% Minimum Essential Medium with Earle's Salts/20% RPMI 1640/10% heat-inactivated fetal calf serum) supplemented with 2 mM GlutaMAX™-I in 5% CO2 at 37° C. and routinely checked to be free of mycoplasma contamination. Cells grown in 175 cm^2 flasks were split with 0.05% Trypsin/EDTA and resuspended in 20 ml fresh medium. One hundred and 50 μl cell suspension were plated per well into 24 well cluster plates (Costar, Schiphol-Rijk, Netherlands) and cells were used one or two days after plating, respectively.
Two to 24 hours before incubation with test compounds the medium was removed and cells were sensitized with 0.4 μg/ml anti-DNP IgE in fresh medium. Following sensitization, cells were washed once with warm TyB and incubated for 60 min with test compound at a maximum of 100 μM or the highest non-toxic concentration (total vehicle concentration adjusted to 1%) or 1% vehicle in TyB at 37° C. DNP-HSA (0.1 μg/ml final concentration) or buffer alone was added and cells incubated for 15 min at 37° C. Plates were centrifuged at 4° C. for 5 min at 250×g and immediately transferred to ice. Supernatants were collected and the cells lysed with lysis buffer. Hexosaminidase activity in supernatants and lysates was measured by incubating 25 μl aliquots with 100 μl MUG substrate solution in a 96-well plate at 37° C. for 30 min. The reaction was terminated by addition of 150 μl stop solution. Fluorescence was measured in a Tecan Safire™ plate reader at 365 nm excitation and 440 nm emission settings.
Each compound is tested in duplicates in at least three independent experiments. β-hexosaminidase release is calculated after subtraction of unspecific release (release without addition of antigen) using the formula: % degranulation=100×RFU supernatant/RFU lysate
Inhibition of β-hexosaminidase release with respect to control is calculated as
follows: % inhibition=100×(1−(RFU supernatant of compound/RFU supernatant of control))

[2] = test system: membrane integrity (lactate dehydrogenase release); test: Cytotoxicity test / membrane integrity assay (Promega Cytotox-One), lactate dehydrogenase release; conditions: for CD50: concentration at which 50% of maximal lactate dehydrogenase release is reached; for cytotoxicity (in words): Table 2
[3] = test system: membrane integrity (lactate dehydrogenase release)
[4] = Rattus norvegicus, RBL-2H3, read-out: maximum inhibition (concentration used)
[5] = Rattus norvegicus, RBL-2H3, at or 25 μM, read-out: inhibition of degranulation
[6] = Rattus norvegicus, RBL-2H3, 25 μM, read-out: maximum inhibition (concentration used)

| Structure (SMILES) | IC50 ([1]; Rattus norvegicus) [µM] | inhibition at 10 µM [1, 4] [%] | inhibition at 25 µM [1, 5] [%] | CD50 [2] [µM] | inhibition at 25 µM [1, 6] [%] | further results |
| --- | --- | --- | --- | --- | --- | --- |
| CCCCCCCCCCCCCCCCOC[C@H](COP(=O)([O-])OCC[N+](C)(C)C)OC [Compound 1, 2-O-methyl PAF C-16] | 2.9 | 89 | > 75 | 48.2 |  |  |
| CCCCCCCCCCCCCCCCCCOCC(COP(=O)([O-])OCC[N+](C)(C)C)OC (centres unmarked) [Compound 5, edelfosine, reference compound] | 6.2 |  | > 75 | 59.0 | 79 | cytotoxicity (in words) [2]: higher cytotoxicity |
| CCCCCCCCCCCCCCCCCCOP(=O)([O-])OC1CC[N+](C)(C)CC1 [Compound 9, octadecyl-(N,N-dimethyl-piperidinio-4-yl)-phosphate, reference compound] | 2.8 | 85 | > 75 | 76.7 |  | cytotoxicity (in words) [2]: less cytotoxic; also recorded: low toxicity |
| CCCCCCCCCCCCCCCCOC[C@H](COP(=O)([O-])OCC[N+](C)(C)C)SC(C)=O [Compound 12, 2-thio PAF C-16] |  |  |  | 86.5 | 41 |  |
| CCCCCCCCCCCCCCCCOC[C@@H](O)COP(=O)([O-])OCC[N+](C)(C)C [Compound 13, 1-hexadecyl-sn-glycero-3-phosphocholine 3-sn-lysophosphatidylcholine] |  |  |  | 58.8 | 41 |  |
| CCCCCCCCCCCCCCCCOC[C@H](COP(=O)([O-])OCC[N+](C)(C)C)OC(C)=O [Compound 14, 1-hexadecyl-2-acetyl-sn-glycero-3-phosphocholine] |  |  |  |  | 42 | CD50 [3]: 57.7 µM |
| CCCCCCCCCCCCCCCCOC[C@H](COP(=O)([O-])OCCCCCC[N+](C)(C)C)OC(C)=O [Compound 16, 1-O-hexadecyl-2-acetyl-sn-glycero-3-phospho-(N,N,N-trimethyl)hexanolamine] |  |  |  | 51.3 | 45 |  |
| CCCCCCCCCCCCCCCC(=O)OC[C@H](O)COP(=O)([O-])OCC[N+](C)(C)C [Compound 20, 1-palmitoyl-2-hydroxy-sn-glycero-3-phosphocholine] |  |  |  |  | 26 | CD50 [3]: 70.3 µM |
| CCCCCCCCCCCCCCCCOC[C@H](CO)OC [Compound 22, 1-O-hexa-decyl-2-O-methyl-sn-glycerol, reference compound] |  |  |  | >100 |  | activity in the mast cell degranulation assay (in words) [1]: poor results; inhibition at 100 µM ([1]; Rattus norvegicus, RBL-2H3, 100 μM, read-out: maximum inhibition (concentration used)): 15% |
| CCCCCCCC/C=C/CCCCCCCCOP(=O)([O-])OCC[N+](C)(C)C [Compound 24, 1-elaidylphosphocholine (C18:1, trans)] | 2.9 | 92 | > 75 | 59.6 |  |  |
| CCCCCCCCCCCCCCCCOCC(COP(=O)([O-])OCC[N+](C)(C)C)OC(C)=O (centres unmarked) [Compound 25, 3-O-hexadecyl-2-acetyl-sn-glycero-1-posphocholine] | 3 | 82 | > 75 |  |  |  |
| CCCCCCCCCCCCCCCCCCOCC(C)(C)COP(=O)([O-])OCC[N+](C)(C)C [Compound 27, 1-O-octadecyl-(2,2-dimethyl)-propanediol-3-phosphocholine] | 8 |  | > 75 |  | 85 |  |
| O=C(O)c1cc(=O)c2c(OCC(O)COc3cccc4oc(C(=O)O)cc(=O)c34)cccc2o1 [cromogylcic acid, reference compound] |  |  |  |  |  | activity in the mast cell degranulation assay (in words) [1]: no or only low activity |
| CN1CCC(=C2c3ccccc3CC(=O)c3sccc32)CC1 [ketotifen fumarate, reference compound] |  |  |  |  |  | activity in the mast cell degranulation assay (in words) [1]: no or only low activity |

Continued, in another order:

| IC50 ([1]; Rattus norvegicus) [µM] | Structure (SMILES) | inhibition at 10 µM [1, 4] [%] | inhibition at 25 µM [1, 5] [%] | CD50 [2] [µM] | inhibition at 25 µM [1, 6] [%] | further results |
| --- | --- | --- | --- | --- | --- | --- |
| 3 | CCCCCCCCCCCCCCCCOC[C@H](COP(=O)([O-])OCC[N+](C)(C)C)OCC [Compound 2, 2-O-ethyl PAF C-16] | 86 | > 75 | 57.2 |  |  |
| 4.8 | CCCCCCCCCCCCCCCCSCC(COC)COP(=O)([O-])OCC[N+](C)(C)C (centres unmarked) [Compound 4, 1-hexadecylmercapto-2-methoxymethyl-3-propyl phosphoric acid monocholine ester, reference compound] |  | > 75 |  | 84 |  |
| 11 | C/C=C/C(=O)O[C@H](COCCCCCCCCCCCCCCCC)COP(=O)([O-])OCCCCCC[N+](C)(C)C [Compound 7, butenoyl PAF C-16] |  |  | 79.6 | 69 |  |
| 13.7 | CCCCCCCCCCCCCCCCOC[C@H](COP(=O)([O-])OCC[N+]1(C)CCCC1)OC(C)=O [Compound 8, pyrrolidino PAF C-16] |  |  | 50.2 | 53 |  |
| 7.1 | CCCCCCCCCCCCOP(=O)([O-])OCC[N+](C)(C)C [Compound 17, Dodecylphosphocholine] |  | > 75 | >100 | 76 |  |
| 2.6 | CCCCCCCCCCCCCCCCCCOP(=O)([O-])OCC[N+](C)(C)C [Compound 23, octadecylphosphocholine (C18:0)] | 82 | > 75 | >50 |  |  |
| 3.1 | CCCCCCCCCCCCCCCCOCCCOP(=O)([O-])OCC[N+](C)(C)C [Compound 26, 1-O-hexadecyl-propanediol-3-phosphocholine] | 90 | > 75 |  |  |  |
| 13.1 | CCCCCCCCCCCCCCCCOC[C@H](COP(=O)([O-])OCC[N+](C)(C)C)OC(=O)CC [Compound 28, 1-O-hexadecyl-2-propionyl-sn-glycero-3-phosphocholine] |  |  |  | 64 |  |
